Here are results for one molecule from patent EP0637588A1, “ACTIVE OXYGEN INHIBITOR COMPOSITION” (SHISEIDO COMPANY LIMITED, priority 1993, dated 1994).

The test concerns polymorphonuclear leukocyte (PMNs). Put plainly: Suppressing action on production of active oxygen from neutrophils (OPZ-stimulated, FCLA dependent chemiluminescence). To be noted: Oryctolagus cuniculus, PMNs stimulated by opsonized zymosan (OPZ), 37°C, read-out: Suppressing Action on Production of Active Oxygen (Suppressive Rate %). It is filed as cell-based, white Japanese rabbit. The protocol:
A 400 mL amount of physiological saline solution containing 0.2% glycogen was administered by drip into the abdominal cavity of a white Japanese rabbit having about 3 kg body weight without anesthesia. After 16 hours, 400 ml of sterilized physiological saline solution was administered, the cavity was massaged well, then the ascites was sampled. This was centrifuged at 100 × g to obtain a precipitate which was then suspended in a Hanks Balanced Salt Solution (HBSS) and adjusted to 5 x 10⁵ cells/mL. This was used as the polymorphonuclear leukocyte (PMNs) fraction. The action on the production of active oxygen by opsonized zymosan (OPZ) was studied as follows: To PMNs (480 µl) were added 3,7-dihydro-6-[4-[2-(N'-(5-fluoresceinyl)thioureid)ethoxy]phenyl]-2-methylimidazo[1,2-a]pyradine-3-on·sodium salt (FCLA) (2 µM) and various concentrations of test compounds. The resulting mixture was incubated at 37°C for 10 minutes, OPZ was added in an amount of 5 µL, and then the FCLA dependent chemiluminescence was measured using a photon counter (made by BertHold of Germany) under a constant temperature of 37°C along with the elapse of time.

`O=C1O[C@H]([C@@H](O)CO)C(O)=C1O` [Ascorbic acid]: the inhibition at 0.1 µM (Concentration 0.1 µM) was found to be 20.1%. Further, the inhibition at 1 µM (Concentration 1.0 µM) came to 51.7%. Where the note is “Concentration 10 µM”, the inhibition at 10 µM was found to be 86.8%.
